Measured values taken from paper PMC7782499, “Progerinin, an optimized progerin-lamin A binding inhibitor, ameliorates premature senescence phenotypes of Hutchinson-Gilford progeria syndrome” (Communications Biology, 2021).
“And” between values parts separate entries of the source, which are not always exact repeats. Equal entries are not always repeated.

Tested on: Lmna G609G/+ mouse
Assay: Body weight of Lmna G609G/+ mice
Format: in vivo
Settings: for Lmna G609G/+ body weight, Ave: group average; for Lmna G609G/+ body weight: individual mouse
Description: Fig. 3 In vivo favorable effect of SLC-D011. A Gross morphology of Lmna^G609G/G609G mice (10 weeks old) was ameliorated after injection with SLC-D011. At the same age, the experimental group (D011) of mice were larger than vehicle-injected control (Con) subjects regardless of gender. B, C SLC-D011 increases body weight B and extends life span C of Lmna^G609G/G609G progeria model mouse (Con: n = 8; SLC-D011: n = 8). Compared with 14.8 weeks of average (ave) life span with maximum (max) life span of 15.5 weeks, 20 mg/kg of intraperitoneal (i.p) injection (twice a week) of SLC-D011 could extend the life span upto 19 weeks (max = 21 weeks). Lmna^G609G/G609G mice were injected with SLC-D011 from age of 5-week old, *p < 0.05. D Gross morphology of SLC-D011 injected Lmna^G609G/+ mouse. […] E SLC-D011 increases body weights of Lmna^G609G/+ mice (Con: n = 10; SLC-D011: n = 11), *p < 0.05. F Favorable effect of SLC-D011 on life span of Lmna^G609G/+ mice. Compared with vehicle-injected control group (ave = 46.7 weeks and max = 48 weeks), SLC-D011 treatment obviously extended the average life span to 63 weeks (max = 64 weeks). The injection was started from 32 weeks old, **p < 0.001. “Con” means vehicle (a solvent composed of DMSO and PBS)-injected mouse group. TEXT PRINTED IN THE PICTURE: (C) D011: Kaplan-Meier survival curve in Lmna^G609G/G609G: Ave=19; Kaplan-Meier survival curve in Lmna^G609G/G609G: Max=21 | (F) D011: Kaplan-Meier survival curve in Lmna^G609G/+: Ave=63; Kaplan-Meier survival curve in Lmna^G609G/+: Max=64 DOUBTS OF THE COPYIST ABOUT THIS PICTURE: Panels C and F: the Ave/Max labels are not printed with a group name. They are assigned to D011 (solid curve) or Con (dashed curve) only by their position beside the curves. / Panel C Ave=14.8, Max=15.5 and panel F Ave=46.7, Max=48 stand beside the dashed Con curve. They are left out because Con is the control group, not a substance. / No unit is printed with the Ave/Max values. Only the axis reads Age (weeks).
Animal experiments were performed in a facility certified by the Association for Assessment and Accreditation of Laboratory Animal Care in compliance with animal policies approved by Pusan National University. The mouse work was performed under the study protocol PNU-2019-2181, as approved by the Institutional Animal Care and Use Committee. Lmna^G609G/609G mice were generated by timed mating of heterozygous Lmna^G609G/+ provided by Carlos López-Otín (Universidad de Oviedo, Asturias, Oviedo, Spain). SLC-D011 was mixed with dimethyl sulfoxide (DMSO) and phosphate-buffered saline (PBS). It was then intraperitoneally injected into mice (20 mg/kg twice per week from 5-week-old). SLC-D011 and lonafarnib were orally administrated to mice daily at a concentration of 10 mg/ml in monoolein-based solution. Lonafarnib was generously provided by Merck, the Progeria Research Foundation (PRF) and the PRF Lonafarnib Pre-clinical Drug Supply Program. Control mice were treated with monoolein-based solution alone in the same way. Lmna^G609G/609G mice were treated with clear chemical solution throughout the life span, starting from 5 weeks of age. Lmna^G609G/+ mice were treated via intraperitoneal and oral administrations, starting from 32 weeks of age.
Fig. S10. Or al administration of SLC-D011 suppresses premature aging features of LmnaG609G/+ mi c e . A.
Gross morphology of SLC-D011 treated Lmna G609G/+ mice at 36 weeks old. B. Oral administration of SLC-
D011 increases body weight s of LmnaG609G/+ mi c e (untreated: n=11; SLC-D011: n=12), * p<0.05. C. […]
intensity of H3K9me3 levels in lung, liver, and kidney tissues of age-matched Lmn a +/+ mouse, untreated
LamnG609G/+ mouse and two progerinin- treated LmnaG609G/+ mice (n = 2 independent experiments; one
Student’s t -test), **p < 0.001,*p< 0.05, N.S: not significant .AU, arbitrary units.
Fig. S12. […] A. SLC-D011, compar ed to lonafarnib, reduces […]

[1] = column after week 64 (head empty), IP injection with SLC-D011, ratio to week 32
[2] = week 32, IP injection with SLC-D011, ratio to week 32
[3] = week 33, IP injection with SLC-D011, ratio to week 32
[4] = week 34, IP injection with SLC-D011, ratio to week 32
[5] = week 35, IP injection with SLC-D011, ratio to week 32
[6] = week 36, IP injection with SLC-D011, ratio to week 32
[7] = week 37, IP injection with SLC-D011, ratio to week 32
[8] = week 38, IP injection with SLC-D011, ratio to week 32
[9] = week 39, IP injection with SLC-D011, ratio to week 32
[10] = week 40, IP injection with SLC-D011, ratio to week 32
[11] = week 41, IP injection with SLC-D011, ratio to week 32
[12] = week 42, IP injection with SLC-D011, ratio to week 32
[13] = week 43, IP injection with SLC-D011, ratio to week 32
[14] = week 44, IP injection with SLC-D011, ratio to week 32
[15] = week 45, IP injection with SLC-D011, ratio to week 32
[16] = week 46, IP injection with SLC-D011, ratio to week 32
[17] = week 47, IP injection with SLC-D011, ratio to week 32
[18] = week 48, IP injection with SLC-D011, ratio to week 32
[19] = week 49, IP injection with SLC-D011, ratio to week 32
[20] = week 50, IP injection with SLC-D011, ratio to week 32
[21] = week 51, IP injection with SLC-D011, ratio to week 32
[22] = week 52, IP injection with SLC-D011, ratio to week 32
[23] = week 53, IP injection with SLC-D011, ratio to week 32
[24] = week 54, IP injection with SLC-D011, ratio to week 32
[25] = week 55, IP injection with SLC-D011, ratio to week 32
[26] = week 56, IP injection with SLC-D011, ratio to week 32
[27] = week 57, IP injection with SLC-D011, ratio to week 32
[28] = week 58, IP injection with SLC-D011, ratio to week 32
[29] = week 59, IP injection with SLC-D011, ratio to week 32
[30] = week 60, IP injection with SLC-D011, ratio to week 32
[31] = week 61, IP injection with SLC-D011, ratio to week 32
[32] = week 62, IP injection with SLC-D011, ratio to week 32
[33] = week 63, IP injection with SLC-D011, ratio to week 32
[34] = week 64, IP injection with SLC-D011, ratio to week 32

CC1(C)Oc2cc3oc(=O)ccc3cc2C[C@@H]1OC/C=C/c1ccccc1 [SLC-D011]
Lmna G609G/+ body weight, Ave [1]: 0 | Lmna G609G/+ body weight [1]: 0 | Lmna G609G/+ body weight, Ave (oral administration, week 36, relative body weight): 1 | Lmna G609G/+ body weight, Ave (oral administration, week 38, relative body weight): 1.017 | Lmna G609G/+ body weight, Ave (oral administration, week 40, relative body weight): 1.063 | Lmna G609G/+ body weight, Ave (oral administration, week 42, relative body weight): 0.9995 | Lmna G609G/+ body weight, Ave (oral administration, week 44, relative body weight): 0.9298 | Lmna G609G/+ body weight, Ave (oral administration, week 46, relative body weight): 0.9013 | Lmna G609G/+ body weight, Ave (oral administration, week 48, relative body weight): 0.862 | Lmna G609G/+ body weight, Ave (oral administration, week 50, relative body weight): 0.8331 | Lmna G609G/+ body weight, Ave (oral administration, week 52, relative body weight): 0.7877 | Lmna G609G/+ body weight, Ave (oral administration, week 54, relative body weight): 0.7841 | Lmna G609G/+ body weight, Ave (oral administration, week 56, relative body weight): 0.7247 | Lmna G609G/+ body weight, Ave (oral administration, week 58, relative body weight): 0.7038 | Lmna G609G/+ body weight, Ave (oral administration, week 60, relative body weight): 0.6602 | Lmna G609G/+ body weight, Ave (oral administration, week 62, relative body weight): 0.5992 | Lmna G609G/+ body weight, Ave (oral administration, week 64, relative body weight): 0.3905 | Lmna G609G/+ body weight, Ave (oral administration, week 66, relative body weight): 0 | Lmna G609G/+ body weight, Ave [2]: 1 | Lmna G609G/+ body weight [2]: 1 | Lmna G609G/+ body weight, Ave [3]: 1.01 | Lmna G609G/+ body weight [3]: 1 and 1.038 | Lmna G609G/+ body weight, Ave [4]: 1.003 | Lmna G609G/+ body weight [4]: 1 and 0.9583 and 1.038 | Lmna G609G/+ body weight, Ave [5]: 0.9948 | Lmna G609G/+ body weight [5]: 1 and 0.9167 and 1.038 | Lmna G609G/+ body weight, Ave [6]: 0.9886 | Lmna G609G/+ body weight [6]: 1 and 0.9583 | Lmna G609G/+ body weight, Ave [7]: 0.9733 | Lmna G609G/+ body weight [7]: 1 and 0.9167 | Lmna G609G/+ body weight, Ave [8]: 0.9619 | Lmna G609G/+ body weight [8]: 0.9565 and 0.9167 and 1 | Lmna G609G/+ body weight, Ave [9]: 0.9549 | Lmna G609G/+ body weight [9]: 0.9565 and 0.9167 and 0.9615 | Lmna G609G/+ body weight, Ave [10]: 0.925 | Lmna G609G/+ body weight [10]: 0.913 and 0.875 and 0.9615 and 0.963 | Lmna G609G/+ body weight, Ave [11]: 0.925 | Lmna G609G/+ body weight [11]: 0.913 and 0.875 and 0.9615 and 0.963 | Lmna G609G/+ body weight, Ave [12]: 0.9069 | Lmna G609G/+ body weight [12]: 0.913 and 0.8333 and 0.9231 and 0.963 | Lmna G609G/+ body weight, Ave [13]: 0.9077 | Lmna G609G/+ body weight [13]: 0.913 and 0.875 and 0.9231 and 0.9259 | Lmna G609G/+ body weight, Ave [14]: 0.8732 | Lmna G609G/+ body weight [14]: 0.8696 and 0.7917 and 0.9231 and 0.9259 | Lmna G609G/+ body weight, Ave [15]: 0.8778 | Lmna G609G/+ body weight [15]: 0.8696 and 0.8333 and 0.9231 and 0.8889 | Lmna G609G/+ body weight, Ave [16]: 0.8769 | Lmna G609G/+ body weight [16]: 0.8696 and 0.7917 and 0.9615 and 0.8889 | Lmna G609G/+ body weight, Ave [17]: 0.8478 | Lmna G609G/+ body weight [17]: 0.8261 and 0.7917 and 0.9231 and 0.8519 | Lmna G609G/+ body weight, Ave [18]: 0.8359 | Lmna G609G/+ body weight [18]: 0.8261 and 0.75 and 0.9231 and 0.8519 | Lmna G609G/+ body weight, Ave [19]: 0.8036 | Lmna G609G/+ body weight [19]: 0.7826 and 0.75 and 0.8846 and 0.7778 | Lmna G609G/+ body weight, Ave [20]: 0.8111 | Lmna G609G/+ body weight [20]: 0.7826 and 0.7917 and 0.8846 and 0.7778 | Lmna G609G/+ body weight, Ave [21]: 0.8111 | Lmna G609G/+ body weight [21]: 0.7826 and 0.7917 and 0.8846 and 0.7778 | Lmna G609G/+ body weight, Ave [22]: 0.7901 | Lmna G609G/+ body weight [22]: 0.7826 and 0.75 and 0.8462 | Lmna G609G/+ body weight, Ave [23]: 0.7931 | Lmna G609G/+ body weight [23]: 0.7826 and 0.7917 and 0.8462 | Lmna G609G/+ body weight, Ave [24]: 0.7747 | Lmna G609G/+ body weight [24]: 0.7391 and 0.7917 and 0.8077 | Lmna G609G/+ body weight, Ave [25]: 0.7712 | Lmna G609G/+ body weight [25]: 0.7391 and 0.7917 and 0.8077 | Lmna G609G/+ body weight, Ave [26]: 0.7636 | Lmna G609G/+ body weight [26]: 0.7391 and 0.75 and 0.8077 | Lmna G609G/+ body weight, Ave [27]: 0.7611 | Lmna G609G/+ body weight [27]: 0.7391 and 0.75 and 0.8077 | Lmna G609G/+ body weight, Ave [28]: 0.746 | Lmna G609G/+ body weight [28]: 0.6957 and 0.6667 and 0.8077 | Lmna G609G/+ body weight, Ave [29]: 0.6892 | Lmna G609G/+ body weight [29]: 0.7391 and 0 and 0.8077 | Lmna G609G/+ body weight, Ave [30]: 0.6894 | Lmna G609G/+ body weight [30]: 0.6957 and 0.7692 | Lmna G609G/+ body weight, Ave [31]: 0.6156 | Lmna G609G/+ body weight [31]: 0.6087 and 0.7692 | Lmna G609G/+ body weight, Ave [32]: 0.5947 | Lmna G609G/+ body weight [32]: 0 and 0.6923 | Lmna G609G/+ body weight, Ave [33]: 0.5548 | Lmna G609G/+ body weight [33]: 0.6923 | Lmna G609G/+ body weight, Ave [34]: 0.2637 | Lmna G609G/+ body weight [34]: 0.6154
